How the values were obtained:
[1] = test system: BxPC3 (pancreatic cancer); assay: Capture test of cell lines by octasaccharide-coated magnetic beads (traditional shaker); type: cell-based; conditions: 30 mins
Text: (§1) The cell lines utilized in this example were SNU478, HuCCT1, Huh28, KKU100, MMNK1, BxPC3, HepG2 and HCT8, SNU478, HuCCT1, Huh28, KKU100, and MMNK1 were supplied by Division of Surgery, National Cheng Kung University Hospital, Taiwan. BxPC3 and HepG2 were supplied by Dr. Kuang Hung Cheng, Institute of Biomedical Science, National Sun Yat-sen University, Taiwan. HCT8 was supplied by Professor Hwan-You Chang, Institute of Life Science, National Tsing Hua University, Taiwan. SNU478, HuCCT1, Huh28 and KKU100 were used as target cells for positive selection, which are CCA cell lines respectively derived from the ampulla of Vater, the intrahepatic-metastasized ascites, the intrahepatic bile duct and the opisthorchis viverrini-related hilar bile duct. For negative selection, MMNK1 (immortalized biliary epithelial), and various types of cancer cell lines, including BxPC3 (pancreatic cancer), HepG2 (liver cancer) and HCT8 (colorectal cancer) were used. Among these cell lines, SNU478, HuCCT1, Huh28, BxPC3 and HCT8 were identically cultured in Roswell Park Memorial Institute 1640 (RPMI 1640, Gibco®, Thermo Fisher Scientific, USA) containing 100 U/mL penicillin and 100 μg/mL streptomycin (Pen Strep, Gibco®, Thermo Fisher Scientific, USA), 10% fetal bovine serum (FBS, Gibco®, Thermo Fisher Scientific, USA). The growth medium for KKU100, MMNK-1 and HepG2 was Dulbecco's modified eagle medium (DMEM, Gibco®, Thermo Fisher Scientific, USA) complemented with the additives described above. All cells were cultured in a humidified incubator at 37° C. under an atmosphere containing 5% CO2.
(§2) In this example, the cells were captured by magnetic beads. The surface of magnetic beads was coated, respectively, with three concentrations of ten kinds of heparan sulfate (HS) octasaccharides, that is, from SCH-43 to SCH-52. The magnetic beads used in this example were Dynabeads® MyOne™ Streptavidin T1 (˜7-10×10^9 beads/mL, Ø=1 μm, Invitrogen, Thermo Fisher Scientific, USA). Briefly, each octasaccharide of 1 μM, 10 μM and 100 μM concentration were first incubated with magnetic beads in a volume/volume ratio of 1:10, and placed on the wheeling rotator (RM-2L INTELLI-mixer, ELMI Ltd., Latvia) at 25 rpm, C2 mode for 30 mins at room temperature. The beads were then collected using a magnetic particle concentrator (MPC, Dynabeads® MPC®-1, Life Technologies) for 2 mins, followed by discarding the supernatant and washing the coated beads three times with 1 mL of deionized (DI) water. Finally, the coated beads were suspended in the same volume of DI water as the initial volume of Dynabeads®.
(§3) In this example, the capture test for the eight cell lines mentioned above was performed with ten octasaccharides to determine their affinity. Therefore, by using the traditional shaker, 2×10^5 cells were incubated with three kinds of concentration (1 μM, 10 μM and 100 μM) of each octasaccharide for 30 mins. After the incubation, they were washed twice and the amount of captured cells was calculated by a hemocytometer under an inverted microscope. Through statistical analysis by ANOVA, the octasaccharides which bound to one cell line with high specificity was compared to other cell lines.

[2] = test system: HCT8 (colorectal cancer); assay: as above; type: cell-based; conditions: 30 mins
Text: as §1, §2, §3

[3] = test system: HepG2 (liver cancer); assay: as above; type: cell-based; conditions: 30 mins
Text: as §1, §2, §3

[4] = test system: HuCCT1 (CCA cell line); assay: as above; type: cell-based; conditions: 30 mins
Text: as §1, §2, §3

[5] = test system: KKU100 (CCA cell line); assay: as above; type: cell-based; conditions: 30 mins
Text: as §1, §2, §3

[6] = test system: MMNK1 (immortalized biliary epithelial); assay: as above; type: cell-based; conditions: 30 mins
Text: as §1, §2, §3

[7] = test system: SNU478 (CCA cell line); assay: as above; type: cell-based; conditions: 30 mins
Text: as §1, §2, §3

[8] = test system: Huh28 (CCA cell line); assay: as above; type: cell-based, human; conditions: 30 mins
Text: The cell lines utilized in this example were SNU478, HuCCT1, Huh28, KKU100, MMNK1, BxPC3, HepG2 and HCT8, SNU478, HuCCT1, Huh28, KKU100, and MMNK1 were supplied by Division of Surgery, National Cheng Kung University Hospital, Taiwan. BxPC3 and HepG2 were supplied by Dr. Kuang Hung Cheng, Institute of Biomedical Science, National Sun Yat-sen University, Taiwan. HCT8 was supplied by Professor Hwan-You Chang, Institute of Life Science, National Tsing Hua University, Taiwan. SNU478, HuCCT1, Huh28 and KKU100 were used as target cells for positive selection, which are CCA cell lines respectively derived from the ampulla of Vater, the intrahepatic-metastasized ascites, the intrahepatic bile duct and the opisthorchis viverrini-related hilar bile duct. For negative selection, MMNK1 (immortalized biliary epithelial), and various types of cancer cell lines, including BxPC3 (pancreatic cancer), HepG2 (liver cancer) and HCT8 (colorectal cancer) were used. […]
In this example, the capture test for the eight cell lines mentioned above was performed with ten octasaccharides to determine their affinity. […] After the incubation, they were washed twice and the amount of captured cells was calculated by a hemocytometer under an inverted microscope. […]

[9] = test system: white blood cells (WBCs); assay: On-bench capture test of WBCs using octasaccharide-coated beads; type: cell-based; conditions: WBCs versus CCA cells (Huh28)
Description: In order to determine whether SCH-45 and SCH-46 can be promising tools for use in clinical examination at an early stage or on the prognostic tracking of cancer, such as blood test, an on-bench capture test of WBCs using SCH-45 and SCH-46 of 100 μM-coated beads was performed in this example.
The whole blood used in this example was provided by National Cheng Kung University Hospital and stored at 4° C. (IRB number: A-ER-103-063 and A-ER-105-109). In order to achieve good efficiency in cancer cell capturing using octasaccharide-coated beads with the blood sample, whole blood was pretreated to remove blood cells, including red blood cells (RBCs) and white blood cells (WBCs). In other words, the whole blood pretreatment process contained a RBC lysis step and a WBC depletion step. […] Whole blood was inoculated with 10^5 Huh28 cells in a 1.5 mL Eppendorf tube. Then, on-bench RBC lysis was performed using a commercial RBC lysis buffer (Cat. 420301, BioLegend®, USA) diluted to 1× working concentration with DI water. The 100 μL of spiked sample was incubated with 1×RBC lysis buffer at a 1:10 volume/volume ratio on a wheeling rotor at 25 rpm, C2 mode for 5 mins, and then centrifuged at 1200 rpm for 5 mins to discard the supernatant. The pellets were washed twice and resuspended in 100 μL of 1× phosphate buffered saline (PBS) buffer. […]

[10] = beads coated with 1 μM octasaccharide
[11] = beads coated with 10 μM octasaccharide
[12] = beads coated with 100 μM octasaccharide

O=C(CCCC[C@@H]1SC[C@@H]2NC(=O)N[C@@H]21)NCCCOCCOCCOCCOCCOCCOCCC(=O)NCCCCCO[C@@H]1O[C@H](C(=O)O)[C@@H](O[C@H]2O[C@H](COS(=O)(=O)O)[C@@H](O[C@@H]3O[C@@H](C(=O)O)[C@@H](O[C@H]4O[C@H](COS(=O)(=O)O)[C@@H](O[C@@H]5O[C@H](C(=O)O)[C@@H](O[C@H]6O[C@H](COS(=O)(=O)O)[C@@H](O[C@@H]7O[C@@H](C(=O)O)[C@@H](O[C@H]8O[C@H](COS(=O)(=O)O)[C@@H](O)[C@H](O)[C@H]8NS(=O)(=O)O)[C@H](O)[C@H]7OS(=O)(=O)O)[C@H](O)[C@H]6NS(=O)(=O)O)[C@H](O)[C@H]5OS(=O)(=O)O)[C@H](O)[C@H]4NS(=O)(=O)O)[C@H](O)[C@H]3OS(=O)(=O)O)[C@H](O)[C@H]2NS(=O)(=O)O)[C@H](O)[C@H]1OS(=O)(=O)O [SCH-45]
capture rate [1, 10]: 16 ± 6%
capture rate [1, 11]: 11 ± 3%
capture rate [1, 12]: 7 ± 3%
capture rate [2, 10]: 16 ± 3%
capture rate [2, 11]: 13 ± 0%
capture rate [2, 12]: 9 ± 2%
capture rate [3, 10]: 14 ± 1%
capture rate [3, 11]: 11 ± 4%
capture rate [3, 12]: 9 ± 6%
capture rate [4, 10]: 5 ± 1%
capture rate [4, 11]: 5 ± 2%
capture rate [4, 12]: 4 ± 2%
capture rate [5, 10]: 42 ± 3%
capture rate [5, 11]: 44 ± 2%
capture rate [5, 12]: 41 ± 11%
capture rate [6, 10]: 55 ± 7%
capture rate [6, 11]: 47 ± 20%
capture rate [6, 12]: 16±8%
capture rate [7, 10]: 20 ± 5%
capture rate [7, 11]: 17 ± 7%
capture rate [7, 12]: 16 ± 8%
capture rate [8, 10]: 66 ± 6%
capture rate [8, 11]: 67 ± 3%
ratio of WBC capture rate to CCA [9]: 5×10^−5
